The text below walks through data of the RepoRT retention time repository.

The nature of this data set: HILIC, Waters ACQUITY UPLC BEH Amide, 100 × 2.1 mm, 1.7 µm; A: water + 0.125% formic acid + 10 mM ammonium formate; B: 5% water + 95% acetonitrile + 0.125% formic acid + 10 mM ammonium formate; gradient (min/%B) 0/100 2/100 7.7/70 9.5/40 10.25/30 12.75/100 17/100. Conditions: stereoisomer not certain.

On to `COc1ccc(CN2CCN(C(c3ccc(F)cc3)c3ccc(F)cc3)CC2)c(OC)c1OC` [Lomerizine], for which the LC retention time is 1.7 min.
For `CC(=O)CCCCn1cnc2c1c(=O)n(C)c(=O)n2C` [Lomifylline] the value was 1.09 min; for `CCOC(=O)N1CCC(=C2c3ccc(Cl)cc3CCc3cccnc32)CC1` [Loratadine], 1.11 min.
Turning to `O=C1Nc2ccc(Cl)cc2C(c2ccccc2Cl)=NC1O` (stereo not given) [Lorazepam], the LC retention time was 1.33 min.
As to `CCCCc1nc(Cl)c(CO)n1Cc1ccc(-c2ccccc2-c2nn[nH]n2)cc1` [Losartan], the LC retention time worked out at 1.27 min.
Turning to `CCOC(=O)OC1(C(=O)OCCl)CCC2C3CCC4=CC(=O)C=CC4(C)C3C(O)CC21C` (stereo not given) [Loteprednol Etabonate], the LC retention time worked out at 0.97 min.
Under `CN1CCN(C2=Nc3ccccc3Oc3ccc(Cl)cc32)CC1` [Loxapine] stands 2.18 min; under `CC(C(=O)O)c1ccc(CC2CCCC2=O)cc1` (stereo not given) [Loxoprofen], 1.09 min.
For the compound `O=c1[nH]c(=O)c2nccnc2[nH]1` [Lumazine], the LC retention time was 2.49 min.
For `NCCCCC(N)C(=O)NCC(=O)O` (stereo not given) [Lys-Gly] the value was 9.84 min.
For `CC(C)C(NC(=O)C(N)CCCCN)C(=O)O` (stereo not given) [Lys-Val] the value was 9.38 min; for `NCCCCC(N)C(=O)O` (stereo not given) [Lysine], 9.54 min; for `CC(C)c1ccc2c(c1)c(SC(C)(C)C)c(CC(C)(C)C(=O)O)n2Cc1ccc(Cl)cc1` [MK-886], 0.96 min.
Under `NC(=O)C=CC(=O)O` [Maleamic acid] stands 1.12 min; under `Cc1occc(=O)c1O` [Maltol], 1.32 min; under `OCC1OC(OC2C(CO)OC(O)C(O)C2O)C(O)C(O)C1O` (stereo not given) [Maltose], 8.75 min.
`CNCCCC12CCC(c3ccccc31)c1ccccc12` [Maprotiline]: the LC retention time was found to be 2.66 min.
Regarding `CC1(C)SC2C(N=CN3CCCCCC3)C(=O)N2C1C(=O)O` (stereo not given) [Mecillinam], the LC retention time is 4.28 min.
Consider `CC(=O)C1(O)CCC2C3CC(C)C4=CC(=O)CCC4(C)C3CCC21C` (stereo not given) [Medroxyprogesterone], for which the LC retention time was found to be 1.01 min.
For `CC(=O)OC1(C(C)=O)CCC2C3C=C(C)C4=CC(=O)CCC4(C)C3CCC21C` (stereo not given) [Megestrol Acetate], the LC retention time is 0.96 min.
For `COc1ccc2[nH]cc(CCNC(C)=O)c2c1` [Melatonin] the value was 1.24 min; for `CC1CCN(CCCC(=O)c2ccc(F)cc2)CC1` [Melperone], 2.12 min; for `CC12CC3CC(C)(C1)CC(N)(C3)C2` [Memantine], 4.24 min.
On to `COc1cc(C)nc(-n2nc(C)cc2OC)n1` [Mepirizole], for which the LC retention time was found to be 1.03 min.
For `Cc1cccc(C)c1NC(=O)C1CCCCN1C` (stereo not given) [Mepivacaine] the value was 2.96 min; for `CCCC(C)(COC(N)=O)COC(N)=O` [Meprobamate], 1.25 min.
With `CN1CCCCC1CCN1c2ccccc2Sc2ccc(S(C)=O)cc21` (stereo not given) [Mesoridazine], the LC retention time amounted to 4.24 min.
Under `CN(C)C(=N)N=C(N)N` [Metformin] stands 5.44 min; under `CCC(=O)C(CC(C)N(C)C)(c1ccccc1)c1ccccc1` (stereo not given) [Methadone], 2 min.
`CNC(C)Cc1ccccc1` (stereo not given) [Methamphetamine]: the LC retention time amounted to 3.33 min.
`Cc1ccccc1-n1c(C)nc2ccccc2c1=O` [Methaqualone]: the LC retention time came out at 1.1 min.
`CSCCC(N)C(=O)O` (stereo not given) [Methionine]: the LC retention time was determined as 7.37 min.
For `CS(=O)CCC(N)C(=O)O` (stereo not given) [Methioninesulfoxide], the LC retention time was 8.62 min.
As for `C=CCC1(C(C)C#CCC)C(=O)NC(=O)N(C)C1=O` (stereo not given) [Methohexital], the LC retention time turned out to be 6.9 min.
For `CN(Cc1cnc2nc(N)nc(N)c2n1)c1ccc(C(=O)NC(CCC(=O)O)C(=O)O)cc1` (stereo not given) [Methotrexate] the value was 7.67 min.
Take `COc1ccc(OC)c(C(O)C(C)N)c1` (stereo not given) [Methoxamine]: the LC retention time was found to be 4.75 min.
On to `CCC=CCC1C(=O)CCC1CC(=O)OC` (stereo not given) [Methyl jasmonate], for which the LC retention time came to 1.04 min.
Take `CC(O)C(C)C(=O)O` (stereo not given) [Methyl-3-hydroxybutyric acid]: the LC retention time was determined as 6.22 min.
For `COC(=O)c1cc(O)c(O)c(O)c1` [Methylgallate] the value was 1.43 min; for `COC(=O)CN` [Methylglycinate], 5.29 min.
Under `CC12CCC(=O)C=C1CCC1C2CCC2(C)C1CCC2(C)O` (stereo not given) [Methyltestosterone] stands 1.04 min.
Regarding `COC(=O)C(N)Cc1ccc(O)cc1` (stereo not given) [Methyltyrosinate], the LC retention time was found to be 4.23 min.
Turning to `CCC1(CC)C(=O)NCC(C)C1=O` (stereo not given) [Methyprylon], the LC retention time was 1.18 min.
For `Cc1ncc([N+](=O)[O-])n1CCO` [Metronidazole] the value was 1.17 min; for `CCC(C)C(=O)OC1CCC=C2C=CC(C)C(CCC3CC(O)CC(=O)O3)C21` (stereo not given) [Mevastatin], 0.99 min; for `Cc1ncc2n1-c1ccc(Cl)cc1C(c1ccccc1F)=NC2` [Midazolam], 1.29 min.
Consider `CC#CC1(O)CCC2C3CCC4=CC(=O)CCC4=C3C(c3ccc(N(C)C)cc3)CC21C` (stereo not given) [Mifepristone], for which the LC retention time was found to be 1 min.
Under `OCCN1CC(O)C(O)C(O)C1CO` (stereo not given) [Miglitol] stands 8.12 min; under `CCN(CC)C(=O)C1(c2ccccc2)CC1CN` (stereo not given) [Milnacipran], 3.23 min; under `Cc1[nH]c(=O)c(C#N)cc1-c1ccncc1` [Milrinone], 1.6 min.
For `CN1CCN2c3ncccc3Cc3ccccc3C2C1` (stereo not given) [Mirtazapine] the value was 3.08 min.
Under `O=C(NCCN1CCOCC1)c1ccc(Cl)cc1` [Moclobemide] stands 2.03 min; under `NC(=O)CS(=O)C(c1ccccc1)c1ccccc1` (stereo not given) [Modafinil], 1.27 min.
For `CCCCCCCCC=CCCCCCCCC(=O)OCC(O)CO` (stereo not given) [Monoolein], the LC retention time is 1.19 min.
Regarding `CCOc1cc(N)c(Cl)cc1C(=O)NCC1CN(Cc2ccc(F)cc2)CCO1` (stereo not given) [Mosapride], the LC retention time was determined as 1.24 min.
Under `COc1c(N2CC3CCCNC3C2)c(F)cc2c(=O)c(C(=O)O)cn(C3CC3)c12` (stereo not given) [Moxifloxacin] stands 4.69 min; under `COc1nc(C)nc(Cl)c1NC1=NCCN1` [Moxonidine], 3.28 min; under `CC(OC1C(N)C(O)OC(CO)C1O)C(=O)O` (stereo not given) [Muramic acid], 8.28 min.
For `CN(C)c1nc2c(ncn2C2OC(CO)C(O)C2O)c(=O)[nH]1` (stereo not given) [N2,N2-Dimethylguanosine] the value was 5.62 min; for `CNc1nc2c(ncn2C2OC(CO)C(O)C2O)c(=O)[nH]1` (stereo not given) [N2-Methylguanosine], 6.4 min.
For `CC(C)=CCNc1ncnc2c1ncn2C1OC(CO)C(O)C1O` (stereo not given) [N6-Isopentenyladenosine] the value was 1.48 min; for `CC(=O)NCCCCNCCCN` [N8-Acetylspermidine], 8.87 min; for `CN(C)C(CCCN=C(N)N)C(=O)O` (stereo not given) [N,N-Dimethylarginine], 9.1 min.
Turning to `CN(C)C=O` [N,N-Dimethylformamide], the LC retention time turned out to be 1.29 min.
For `CN(C)CC(=O)O` [N,N-Dimethylglycine], the LC retention time worked out at 7.4 min.
Under `CC(=O)Nc1ccc2c(c1)Cc1ccccc1-2` [N-2-Fluorenylacetamide] stands 4.74 min.
Take `OCC1OC(n2cnc3c(NC4CCCC4O)ncnc32)C(O)C1O` (stereo not given) [N-2-Hydroxycyclopentyladenosine]: the LC retention time is 3.48 min.
For `O=C(O)CNC(=O)c1ccco1` [N-(2-Furoyl)glycine] the value was 4.01 min; for `CC(=O)NC(CCCN=C(N)N)C(=O)O` [N-.alpha.-Acetyl-L-arginine], 8.16 min; for `CC(=O)NCCc1c[nH]c2ccc(O)cc12` [N-Acetyl-5-hydroxytryptamine], 1.43 min.
Consider `CC(=O)NC(CC(=O)O)C(=O)NC(CCC(=O)O)C(=O)O` (stereo not given) [N-Acetyl-Asp-Glu], for which the LC retention time was 8.11 min.
For `CC(=O)NCCC(=O)NC(Cc1cnc[nH]1)C(=O)O` [N-Acetyl-L-carnosine] the value was 8.35 min; for `CC(=O)N[C@@H](CCC(N)=O)C(=O)O` [N-Acetyl-L-glutamine], 8.18 min; for `CC(=O)NC(C)C(=O)O` (stereo not given) [N-Acetylalanine], 4.83 min.
On to `CC(=O)N1CCCCCC1=O` [N-Acetylcaprolactam], for which the LC retention time is 2.3 min.
In the case of `CC(=O)NC(CS)C(=O)O` (stereo not given) [N-Acetylcysteine], the LC retention time worked out at 5.28 min.
For `CC(=O)Nc1ccn(C2OC(CO)C(O)C2O)c(=O)n1` (stereo not given) [N-Acetylcytidine] the value was 5.08 min.
Under `CC(=O)NC(CCC(=O)O)C(=O)O` (stereo not given) [N-Acetylglutamic acid] stands 7.67 min; under `CC(=O)NC(Cc1cnc[nH]1)C(=O)O` (stereo not given) [N-Acetylhistidine], 8.07 min; under `CC(=O)NC(CC(C)C)C(=O)O` (stereo not given) [N-Acetylleucine], 2.29 min.
For `CC(=O)NC1C(O)OC(CO)C(O)C1O` (stereo not given) [N-Acetylmannosamine] the value was 7.01 min; for `CSCCC(NC(C)=O)C(=O)O` (stereo not given) [N-Acetylmethionine], 3.23 min; for `CC(=O)NC1C(O)CC(O)(C(=O)O)OC1C(O)C(O)CO` (stereo not given) [N-Acetylneuraminic acid], 9.26 min.
Turning to `CC(=O)NC(Cc1ccccc1)C(=O)O` (stereo not given) [N-Acetylphenylalanine], the LC retention time is 2.61 min.
Under `CC(=O)NC(CO)C(=O)O` (stereo not given) [N-Acetylserine] stands 7.67 min.
